We go through 9 compounds from publication PMC4812144, “Flavonolignans As a Novel Class of Sodium Pump Inhibitors” (Frontiers in Physiology, 2016).

One may read the IC50 as the concentration that gives 50% inhibition. By remaining activity is commonly meant the signal under treatment as a percentage of the control signal.

The target of data set [1] is T1, Na+/K+-ATPase (NKA) (Sus scrofa, UniProt P05024).
T1 construct: The NKA was prepared from porcine kidney outer medulla; from tissue; host or cells: porcine kidney outer medulla
The data set is described as follows: Ouabain-sensitive ATPase activity of NKA (Baginsky assay). Type of data set: biochemical, porcine. The following applies: for n, Hill coefficient: fit of NKA inhibition curve to logistic function; for IC50: ouabain-sensitive ATPase activity, NKA from porcine kidney, 3 mM ATP, read-out: IC50 for inhibition of the NKA activity. As to the method:
The NKA was prepared from porcine kidney outer medulla using the method of Jorgensen and Klodos with some modifications (Jørgensen, [1988]; Klodos et al., [2002]; Kubala et al., [2014]). An isolated enzyme was pipetted into small aliquots and stored at −20°C in ISE buffer (25 mM imidazole, 250 mM sucrose, 1 mM EDTA, pH 7.4) containing SDS detergent. The molar concentration of isolated NKA was estimated using the Bradford method with consideration of MW(α + β) = 165,000 Da. The protein purity >90% was estimated from SDS-PAGE (Figure 2).
The measurements of NKA activity were performed using the Baginsky assay (Kubala et al., [2014]). The assay was performed in microwell plates in 4 replicates for each point and automated in the pipetting station Freedom EVO (Tecan, Switzerland).
(§1) The reaction buffer was composed of 325 mM NaCl, 50 mM KCl, 7.5 mM MgCl2, and 75 mM imidazole, pH 7.2. In the experiments where the K^+-dependence was estimated, the KCl concentration is ranging from 0 to 100 mM. The NKA (0.1 mg/mL) isolated from porcine kidney was mixed with reaction buffer without ATP. All inhibitors were solubilized in methanol immediately before the measurement and then premixed with the reaction buffer to the required concentration. Subsequently, 10 μL of inhibitor solution was added into 20 μL of enzyme solution and incubated for 2 min. In the control sample, only 10 μL of reaction buffer without inhibitor was added including corresponding amount of methanol. The reaction was started by the addition of ATP solution (20 μL, 7.5 mM in the stock, the final concentration in the reaction was 3 mM). The reaction proceeded for 6 min at room temperature and then was stopped by addition of 75 μL of staining solution, which was composed of 160 mM ascorbic acid, 3.7% (v/v) acetic acid, 3% (w/v) SDS, and 0.5% ammonium molybdate. The staining reaction was stopped after another 8 min by adding 125 μL of solution composed of 0.9% (w/v) bismuth citrate, 0.9% (w/v) sodium citrate and 3.7% HCl.
The Baginsky method detects a product of ATP hydrolysis, inorganic phosphate, which interacts with ammonium molybdate. The reaction results in a color change, which can be monitored as a change of absorbance at 710 nm, and was measured using microplate reader Synergy Mx (BioTek, USA). The calibration line was determined using KH2PO4 solutions, in […] concentration range.
(§2) The specific NKA activity is standardly estimated using the treatment by ouabain, which serves as a specific inhibitor of NKA. The ATPase activity decreases to less than 10% in the presence of 10 mM ouabain. This residual activity in the presence of ouabain was subtracted from the total estimated ATPase activity in ouabain-untreated samples, and all data are presented as the ouabain-sensitive ATPase activity. The IC50 values were obtained from fitting the data to the logistic function.

A short description of data set [2]: Solubility (qualitative remarks). It is filed as physicochemical. The settings on record: NKA activity assay.
Data set [3] addresses T1, Na+/K+-ATPase (NKA). Nature of the data set: K+/ouabain antagonism: ouabain inhibition of NKA activity with or without flavonolignan. Type of data set: biochemical, porcine. The following applies: for K0.5(ouabain): in the presence of 40 μM flavonolignan; for IC50: K0.5(ouabain), no flavonolignan (row None). The protocol: as §1, §2
(§3) We have tested influence of these three species on the ouabain inhibition and K^+-dependence of NKA activation. None of the species substantially influenced the IC50 for ouabain or the K^+/ouabain antagonism (Figure 5). The NKA activity is K^+-dependent and it increased with increasing concentration of potassium with K0.5(K^+) = 4.2 ± 0.6 mM.

For data set [4], the target named is T1, Na+/K+-ATPase (NKA). Nature of the data set: K+-dependence of NKA activity (K+-dependent activation). Type of data set: biochemical, porcine. The protocol: as §1, §3
In data set [5] the target is T2, large cytoplasmic segment C45 of NKA (C45 loop, residues L354-I777) (Mus musculus, UniProt Q8VDN2).
T2 construct: (His)6-tag (N); made in house; host or cells: E. coli BL21
Nature of the data set: Fluorescence spectroscopy of interaction with isolated large cytoplasmic segment C45. It is filed as binding. The following applies: 5 μM species; for Fluorescence intensity increase in the presence of C45: 5 μM C45, pH 7.4, excitation 380 nm. As to the method:
The large cytoplasmic segment connecting the transmembrane helices 4 and 5 (C45 loop, residues L354-I777 of the mouse brain sequence) with a (His)6-tag at the N-terminus was expressed in E. coli BL21 (Promega, USA) and purified using a Co^2+-based affinity resin (Clontech, USA) as described previously (Grycova et al., [2009]). Immediately after elution, the protein was dialyzed into 20 mM Tris, 140 mM NaCl, pH 7.4 buffer and stored at −20°C.
Spectroscopic experiments were performed in 20 mM Tris, 140 mM NaCl, pH 7.4 buffer. SCH, DHSCH and DHSD as well as protein C45 were diluted to 5 μM concentration.
Fluorescence emission spectra were measured using Fluorolog-3 (Horiba Scientific, USA). The spectra were scanned with a step of 1 nm, both excitation- and emission bandpass 5 nm and integration time 1 s. For SCH, the excitation was 325 nm and emission was recorded in the 340–600 nm interval, for DHSCH and DHSD, the excitation wavelength was 380 nm and spectra were scanned in the 400–600 nm interval. Signal from pure buffer was subtracted as a background.

Setting [6] is: 40 mM KCl (value in parentheses).
Setting [7] is: in the presence of 40 μM flavonolignan.

`COc1cc(C2Oc3cc(-c4oc5cc(O)cc(O)c5c(=O)c4O)ccc3OC2CO)ccc1O` (centres unmarked) [DHSB]: on Na+/K+-ATPase (NKA) [1], the “n, Hill coefficient” value is reported as 0.5 ± 0.1 and the IC50 turned out to be 900 ± 800 µM. Further, the “Solubility limiting the examined concentration range” value in data set [2] was “lower solubility”.
For `COc1cc(C2Oc3c(O)cc(-c4oc5cc(O)cc(O)c5c(=O)c4O)cc3C2CO)ccc1O` (centres unmarked) [DHSCH, dehydrosilychristin], the “n, Hill coefficient” value at Na+/K+-ATPase (NKA) [1] was determined as 0.8 ± 0.1. At Na+/K+-ATPase (NKA) [1], the IC50 was determined as 38 ± 8 µM. In addition, the “K0.5(ouabain)” value came out at 1.5 ± 0.5 µM at Na+/K+-ATPase (NKA) [3] (5 mM KCl) and 24 ± 6 µM at Na+/K+-ATPase (NKA) [3] (setting [6]). Further, on Na+/K+-ATPase (NKA) [4] (setting [7]), the “K0.5(K+) for K+-dependent activation of NKA” value stood at 4 ± 1 mM. The “Fluorescence intensity increase in the presence of C45” value in data set [5] is “ca. 3 times”.
`COc1cc(C2C3C=C(c4oc5cc(O)cc(O)c5c(=O)c4O)C4C2COC4(O)C3=O)ccc1O` (centres unmarked) [DHSD, dehydrosilydianin]: at Na+/K+-ATPase (NKA) [1], the “n, Hill coefficient” value is given as 0.6 ± 0.1 and the IC50 is 36 ± 14 µM. The “K0.5(ouabain)” value on Na+/K+-ATPase (NKA) [3] (5 mM KCl) was 3.3 ± 1.4 µM. In addition, the “K0.5(ouabain)” value at Na+/K+-ATPase (NKA) [3] (setting [6]) came to 19 ± 7 µM. The “K0.5(K+) for K+-dependent activation of NKA” value on Na+/K+-ATPase (NKA) [4] (setting [7]) was 3 ± 2 mM. The “Fluorescence intensity increase in the presence of C45” value in data set [5] is reported as “three-fold”. Besides, the “Solubility limiting the examined concentration range” value in data set [2] was “lower solubility”.
Take `O=c1c(O)c(-c2ccc(O)c(O)c2)oc2cc(O)cc(O)c12` [QUE, quercetin]: the IC50 at Na+/K+-ATPase (NKA) [1] was > 1000 µM.
With `COc1cc(C2Oc3cc([C@H]4Oc5cc(O)cc(O)c5C(=O)[C@@H]4O)ccc3OC2CO)ccc1O` (some centres unmarked) [SB, silybin], the IC50 at Na+/K+-ATPase (NKA) [1] is > 1000 µM. Moreover, the “Solubility limiting the examined concentration range” value in data set [2] is listed as “lower solubility”.
`COc1cc(C2Oc3c(O)cc([C@H]4Oc5cc(O)cc(O)c5C(=O)[C@@H]4O)cc3C2CO)ccc1O` (some centres unmarked) [SCH, silychristin]: on Na+/K+-ATPase (NKA) [1], the “n, Hill coefficient” value was determined as 0.6 ± 0.1 and the IC50 stood at 110 ± 40 µM. Besides, the “K0.5(ouabain)” value on Na+/K+-ATPase (NKA) [3] (5 mM KCl) came to 4.0 ± 1.7 µM. In addition, on Na+/K+-ATPase (NKA) [3] (setting [6]), the “K0.5(ouabain)” value was determined as 18 ± 2 µM. At Na+/K+-ATPase (NKA) [4] (setting [7]), the “K0.5(K+) for K+-dependent activation of NKA” value amounted to 8 ± 5 mM. Moreover, in data set [5] (5 μM C45, pH 7.4), the “Fluorescence quantum yield increase in the presence of C45 compared to the free species” value is recorded as “more than 1000 times”.
Turning to `COc1cc([C@@H]2[C@H]3CO[C@@]4(O)C(=O)[C@@H]2C=C([C@H]2Oc5cc(O)cc(O)c5C(=O)[C@@H]2O)[C@@H]34)ccc1O` [SD, silydianin], the IC50 at Na+/K+-ATPase (NKA) [1] was > 1000 µM. Besides, the “Solubility limiting the examined concentration range” value in data set [2] was “lower solubility”.
As to `O=C1c2c(O)cc(O)cc2OC(c2ccc(O)c(O)c2)C1O` (centres unmarked) [TAX, taxifolin], the IC50 at Na+/K+-ATPase (NKA) [1] was > 1000 µM.
Take `C[C@@H]1O[C@@H](O[C@H]2C[C@@H](O)[C@]3(CO)[C@H]4[C@H](O)C[C@]5(C)[C@@H](C6=CC(=O)OC6)CC[C@]5(O)[C@@H]4CC[C@]3(O)C2)[C@H](O)[C@H](O)[C@H]1O` [ouabain, reference compound]: at Na+/K+-ATPase (NKA) [1] (read-out: ATPase activity remaining in the presence of ouabain), the remaining activity at 10000 µM was < 10%. Also, the IC50 on Na+/K+-ATPase (NKA) [3] (5 mM KCl) was 2.6 ± 1.3 µM; at Na+/K+-ATPase (NKA) [3] (setting [6]) it was 23 µM. Moreover, on Na+/K+-ATPase (NKA) [4] (in the presence of ouabain), the “K0.5(K+) for K+-dependent activation of NKA” value is given as 14.8 ± 0.1 mM.
